COc1ccccc1OCCNCC(O)COc1cccc2[nH]c3ccccc3c12 (stereo not given)
Details	solubility (mole fraction)
in PEG-400, 288.15 K	0.0501
in PEG-400, 293.15 K	0.0539
in PEG-400, 298.15 K	0.0582
in PEG-400, 303.15 K	0.062
in PEG-400, 308.15 K	0.0661

solubility (mole fraction)
Details	288.15 K	293.15 K	298.15 K	303.15 K	308.15 K
in THF	0.0211	0.0235	0.0261	0.0291	0.0321
in acetone	0.0125	0.0147	0.0173	0.0201	0.023
in dichloromethane	0.00254	0.00334	0.00429	0.00556	0.00722
in ethanol	0.000677	0.000846	0.00106	0.00128	0.00158
in ethyl acetate	0.0015	0.00189	0.00239	0.00292	0.00362
in glycerin	0.000273	0.000307	0.000342	0.00038	0.000421
in isopropanol	0.000421	0.000555	0.000726	0.000947	0.00124
in methanol	0.000767	0.000959	0.0012	0.00149	0.00185
in n-butanol	0.000678	0.00079	0.000924	0.00108	0.00125
in n-propanol	0.000634	0.000791	0.000996	0.00122	0.00149
in propylene glycol	0.00138	0.00155	0.00174	0.00193	0.00213

— BigSolDB 2.1
